From patent US6884593B1, “Method of identifying properties of substance with respect to human prostaglandin D2 receptors” (BML, Inc., priority 1999, dated 2005)

Legend:
human CRTH2 [1] = target: T1, human CRTH2 (Homo sapiens, UniProt Q9Y5Y4); assay: [^3H]PGD2 binding assay, cells expressing human CRTH2 (KB8); conditions: for order of the degree of the binding affinity of prostanoids to human CRTH2: [^3H]PGD2 binding in the presence of unlabeled prostanoids, KB8, FIG. 3; for degree of binding affinity of human CRTH2 compared with that of the DP receptor: comparison human CRTH2 vs DP receptor
T1 construct: A transformant into which full-length human CRTH2 cDNA is integrated is deposited as B19 cDNA; expressed in transfected cells
T1 sequence (Q9Y5Y4 1-395): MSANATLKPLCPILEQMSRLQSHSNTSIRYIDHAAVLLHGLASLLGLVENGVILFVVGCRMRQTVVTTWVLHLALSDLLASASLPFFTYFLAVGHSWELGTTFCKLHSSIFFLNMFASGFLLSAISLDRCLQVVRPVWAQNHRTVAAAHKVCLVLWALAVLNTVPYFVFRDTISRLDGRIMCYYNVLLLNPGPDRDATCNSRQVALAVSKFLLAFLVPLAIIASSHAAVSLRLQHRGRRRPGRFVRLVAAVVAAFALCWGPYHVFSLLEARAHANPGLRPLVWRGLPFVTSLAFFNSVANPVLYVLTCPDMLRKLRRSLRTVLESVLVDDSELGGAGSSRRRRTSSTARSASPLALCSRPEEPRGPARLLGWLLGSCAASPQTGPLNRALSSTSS
Experimental: Human CRTH2 gene expression plasmid pRc/B19 was prepared by means of a method described in detail in Nagata, K. et al., J. Immunol., 162: 1278-1286, 1999 and Japanese Sai-Kohyo (PCT) Patent Publication WO 97/46677. A transformant into which full-length human CRTH2 cDNA is integrated is deposited as B19 cDNA in National Institute of Bioscience and Human-Technology, Agency of Industrial Science and Technology (deposit number: FERM P-15616), and B19 cDNA can be used after approval is obtained from the depositor. When B19 cDNA is digested with restriction enzymes HindIII and XbaI, and is subcloned into the HindIII/XbaI site of plasmid pRc/CMV (product of Invitrogen), the same expression plasmid as the aforementioned pRc/B19 can be prepared. Through electroporation, the pRc/B19 and control plasmid pRc/CMV were genetically introduced into K562 cells, a human erythroblastic leukemia cell strain, and were subjected to selective culture for two to three weeks in the presence of 400 μg/ml of geneticin (product of SIGMA). Among the K562 cells into which the pRc/B19 had been genetically introduced, the survived cells were added to a 96-well microplate (0.3 cells per well), and then cultured for two to three weeks. The proliferated cell clones were subjected to fluorescence staining by use of an anti human CRTH2 antibody (Nagata, K. et al., J. Immunol., 162: 1278-1286, 1999), and clone KB8, in which human CRTH2 was highly expressed, was obtained. The K562 cells into which the control pRc/CMV had been genetically introduced were selected by use of geneticin, and then culture of the resultant cells was continued while polyclones were present (hereinafter the cells will be referred to as “K562/neo”).
(§1) Each of KB8 cells, KD36 cells, and K562/neo cells was resuspended in Hank's balanced salt solution (HBSS, product of Gibco BRL) so as to attain a concentration of 3×10^7 cells/ml. The resultant suspension (0.1 ml) was placed in a 0.5-ml microtube, and then cooled on ice. Subsequently, 1 nM of [^3H]PGD2 (product of Amersham) which had been diluted with HBSS was added to the suspension, to thereby allow reaction to proceed on ice for one hour. The reacted cells were placed carefully onto RPMI1640 medium (1 ml) containing 1 M sucrose and 10% fetal bovine serum, the medium having been placed in an 1.5-ml microtube and cooled by ice, and subjected to centrifugation (10,000 revolutions, three minutes) by use of a micro-centrifuge. […] The radiation activity of the cells bound to [^3H]PGD2 was measured by use of a liquid scintillation counter. The radiation activity of the cells when measured, in a manner similar to that described above, in the presence of unlabeled PGD2 (concentration: 200 times or more that of [^3H]PGD2) was used as an index of non-specific binding. […] In contrast, the specific binding of [^3H]PGD2 to KB8 or KD36 is observed.
(§2) [^3H]PGD2 binding assay described in Example 3 was carried out in the presence of various unlabeled prostanoids (products of Cayman), and the binding affinity of human CRTH2 to various prostanoids was evaluated.

DP receptor [2] = target: T2, DP receptor (Homo sapiens, UniProt Q13258); assay: [^3H]PGD2 binding assay, cells expressing DP receptor (KD36); conditions: [^3H]PGD2 binding in the presence of unlabeled prostanoids, KD36, FIG. 3
T2 construct: the coding region of the human DP receptor was amplified through PCR; expressed in transfected cells; cDNA from human small intestine poly(A)+ RNA
T2 sequence (Q13258 1-359): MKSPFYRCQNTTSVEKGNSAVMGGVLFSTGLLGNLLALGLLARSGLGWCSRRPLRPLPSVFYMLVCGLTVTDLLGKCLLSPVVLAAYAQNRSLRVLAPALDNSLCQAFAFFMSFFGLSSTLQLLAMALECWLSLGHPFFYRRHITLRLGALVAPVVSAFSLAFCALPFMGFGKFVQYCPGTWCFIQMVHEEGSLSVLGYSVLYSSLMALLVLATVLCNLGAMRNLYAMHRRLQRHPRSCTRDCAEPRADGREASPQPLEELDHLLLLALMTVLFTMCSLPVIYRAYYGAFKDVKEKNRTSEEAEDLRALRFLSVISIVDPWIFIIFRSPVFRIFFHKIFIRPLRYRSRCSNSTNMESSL
Experimental: Human DP receptor cDNA was cloned through RT-PCR on the basis of the nucleotide sequence of human DP receptor cDNA described in Boie, Y. et al., J. Biol. Chem., 270: 18910-18916, 1995 and Japanese Kohyo (PCT) Patent Publication No. 10-507930. Specifically, the cDNA was prepared by use, as an template, of poly(A)+RNA (product of Clonetech) of the human small intestine in which the human DP receptor is highly expressed, and by use of oligo (dT) primer (product of Pharmacia) and MMLV reverse transcriptase (product of Pharmacia). Subsequently, the coding region of the human DP receptor was amplified through PCR (35 heat cycles, each cycle consisting of heating at 94° C. for 1 minute, at 68° C. for 1 minute, and at 72° C. for 1 minute) by use of a forward primer (5′-[…]: SEQ No. 1) containing a restriction enzyme HindIII site, and a reverse primer (5′-[…]: SEQ No. 2) containing an XbaI site. The resultant PCR product was digested with HindIII and XbaI, and subcloned into the HindIII/XbaI site of pRc/CMV. The thus-prepared human DP receptor expression plasmid was introduced into a K562 cell in a manner similar to that described in Example 1, and subjected to selection by use of geneticin and to cloning. The proliferated clones were subjected to the below-described [^3H]PGD2 binding assay, to thereby obtain clone KD36 in which the DP receptor is highly expressed.
as §1, §2

human CRTH2 [3] = target: T1, human CRTH2; assay: Down modulation of human CRTH2 molecules from cell surface, KB8 cells; assay type: cell-based; conditions: 37° C. for one hour, flow cytometer, FIG. 4
Experimental: KB8 cells were suspended in RPMI1640 medium containing 10% fetal bovine serum so as to attain a concentration of 10^6 cells/ml, and cultured at 37° C. for one hour in the presence of a test sample. After completion of culturing, the cells were washed twice with HBSS through centrifugation, to thereby remove cell-free part of the sample. Subsequently, the resultant cells were resuspended in HBSS containing 0.5% bovine serum albumin and 0.05% NaN3, and the resultant suspension was subjected to fluorescence staining by use of anti CRTH2 monoclonal antibody HM16 and phycoerythrin-labeled anti rat immunoglobulin antibody. The average fluorescence intensity of the stained cells was measured by use of a flow cytometer (product of Becton Dickinson), and the fluorescence intensity of the cells treated with the sample was compared with that of non-treated cells (control).

human CRTH2 [4] = target: T1, human CRTH2; assay: Intracellular calcium assay, KB8 cells; assay type: cell-based; conditions: treatment with PGD2 (some nM), Fura-2AM
Experimental: (§3) Each of KB8 cells, KD36 cells, and K562/neo cells was suspended in RPMI1640 medium containing 10% fetal bovine serum so as to attain a concentration of 5×10^6 cells/ml, and cultured at 37° C. for one hour in the presence of 5 μM of Fura-2AM (product of Dojindo). After completion of culturing, the cells were washed three times with HBSS through centrifugation, to thereby remove free Fura-2AM. Subsequently, the resultant cells were resuspended in HBSS containing 0.1% bovine serum albumin so as to attain a concentration of 10^6 cells/ml. The resultant suspension was placed in a quartz cell (volume: 0.4 ml), and the cell was set in spectrophotometer LS50B (product of PerkinElmer). After a sample was added to the suspension, the time-course change of the ratio of fluorescence intensities (510 nm) at excitation wavelengths of 340 nm and 380 nm was obtained through calculation by use of FL-Winlab software (product of PerkinElmer).

DP receptor [5] = target: T2, DP receptor; assay: Intracellular calcium assay, KD36 cells; assay type: cell-based; conditions: treatment with PGD2 (some nM), Fura-2AM
Experimental: as §3

K562/neo cells = assay: Intracellular calcium assay, control K562/neo cells; assay type: cell-based, human; conditions: treatment with PGD2 (0.25-250 nM), Fura-2AM
Experimental: as §3

order of the degree of the binding affinity of prostanoids to the DP receptor (DP receptor [2])	Structure (SMILES)	order of the degree of the binding affinity of prostanoids to human CRTH2 (human CRTH2 [1])	down modulation of CRTH2 (average fluorescence intensity vs non-treated control) (human CRTH2 [3])	degree of binding affinity of human CRTH2 compared with that of the DP receptor (human CRTH2 [1])	concentration of calcium in the cells (human CRTH2 [4])	concentration of calcium in the cells (DP receptor [5])	concentration of calcium in the cells (K562/neo cells)
PGJ2>>PGE2>13,14-dihydro-15-keto PGD2	CCCCC[C@H](O)/C=C/[C@H]1[C@H](O)CC(=O)[C@@H]1C/C=C\CCCC(=O)O [PGE2, prostaglandin E2]	15-deoxydelta 12,14-PGJ2≧prostaglandin E2 (PGE2)=prostaglandin A2 (PGA2)	does not exert such an effect	–	–	–	–
15-deoxydelta 12,14-PGJ2≧TXB2≧PGA2	CCCCC[C@H](O)/C=C/[C@H]1OC(O)C[C@H](O)[C@@H]1C/C=C\CCCC(=O)O (stereo partly shown) [TXB2, thromboxane B2]	prostaglandin A2 (PGA2)>>thromboxane B2 (TXB2)	–	–	–	–	–
TXB2≧PGA2	CCCCC[C@H](O)/C=C/[C@H]1C=CC(=O)[C@@H]1C/C=C\CCCC(=O)O [PGA2, prostaglandin A2]	prostaglandin E2 (PGE2)=prostaglandin A2 (PGA2)>>thromboxane B2 (TXB2)	–	–	–	–	–
PGD2=PGJ2>>PGE2	CCCCC[C@H](O)/C=C/[C@H]1C(=O)C=C[C@@H]1C/C=C\CCCC(=O)O [PGJ2, prostaglandin J2]	13,14-dihydro-15-keto PGD2>>prostaglandin J2 (PGJ2)>15-deoxydelta 12,14-PGJ2	–	–	–	–	–

Structure (SMILES)	order of the degree of the binding affinity of prostanoids to the DP receptor (DP receptor [2])	order of the degree of the binding affinity of prostanoids to human CRTH2 (human CRTH2 [1])	down modulation of CRTH2 (average fluorescence intensity vs non-treated control) (human CRTH2 [3])	degree of binding affinity of human CRTH2 compared with that of the DP receptor (human CRTH2 [1])	concentration of calcium in the cells (human CRTH2 [4])	concentration of calcium in the cells (DP receptor [5])	concentration of calcium in the cells (K562/neo cells)
CCCCC[C@H](O)/C=C/[C@H]1C(=O)C[C@H](O)[C@@H]1C/C=C\CCCC(=O)O [PGD2, Prostaglandin D2]	PGD2=PGJ2	PGD2≧13,14-dihydro-15-keto PGD2	induce down modulation of CRTH2 significantly as compared with the control	equal to that of the binding affinity of the DP receptor to PGD2	increased considerably	increased considerably	did not vary significantly
CCCCC/C=C/C=C1/C(=O)C=CC1C/C=C\CCCC(=O)O (stereo not shown) [15-deoxydelta 12,14-PGJ2]	13,14-dihydro-15-keto PGD2>15-deoxydelta 12,14-PGJ2≧TXB2	prostaglandin J2 (PGJ2)>15-deoxydelta 12,14-PGJ2≧prostaglandin E2 (PGE2)	–	–	–	–	–
CCCCCC(=O)CCC1C(=O)CC(O)C1C/C=C\CCCC(=O)O (stereo not shown) [13,14-dihydro-15-keto PGD2]	PGE2>13,14-dihydro-15-keto PGD2>15-deoxydelta 12,14-PGJ2	PGD2≧13,14-dihydro-15-keto PGD2>>prostaglandin J2 (PGJ2)	induce down modulation of CRTH2 significantly as compared with the control	a great difference exists between human CRTH2 and the DP receptor	–	–	–
